From patent publication US6489307B1, “Antisense compositions targeted to β1-adrenoceptor-specific mRNA and methods of use” (University of Florida, priority 1998, dated 2002)

Assays:
β2-ARs = assay: Quantitative autoradiography of brain, heart and kidney sections; format: in vivo, rat (SHR)
Experimental: (§1) Four days after injection of 1 mg/kg β1-AS-ODN (n=6) or saline (n=6), rats were killed, and tissues were removed and frozen in dry ice. Coronal sections of brain, horizontal sections of heart, and sagittal sections of kidney (20 μm) were cut on a cryostat (Microm, Thornwood, N.Y.) at ^−20° C. and mounted on microscope slides. Every seventh slide was stained with hematoxylin and eosin for histology. Tissue sections were preincubated in Krebs buffer (mmol/L: NaCl 118.4, KCl 4.7, MgSO4 1.2, CaCl2 1.27 and NaH2PO4 10.0, pH 7.1) containing 0.1 mmol/L GTP, 0.1 mmol/L ascorbic acid, and 10 μmol/L PMSF for 30 minutes at 25° C. Sections were then incubated in Krebs buffer containing 0.1 mmol/L ascorbic acid and 10 μmol/L PMSF with 100 pmol/L ICYP at 25° C. for 150 minutes in the presence of 1 μmol/L (^−) propranolol, 100 nmol/L ICI 118,551 ([…]), or 100 nmol/L CGP20712A (β1-selective antagonist) to distinguish nonspecific, β1−, and β2-bindings. Labeled sections were rinsed in the same buffer, followed by two 15-min. washes at 37° C. in the buffer, and rinsed in distilled water at 25° C. (Matthews et al., 1994). Dried sections were then exposed to x-ray films. The images were quantified with a computerized image analysis system (MCID, Imaging Research) and normalized with ^125I standards.
(§2) Four days after injection of 0.5 mg/kg β1-AS-ODN (n=6) or saline (n=6), rats were euthanized, and the right kidneys were removed and frozen in dry ice. Sagittal sections of kidney (20 μm) were cut on a cryostat (Microm) at −20° C. and mounted on microscope slides. Every seventh slide was stained with hematoxylin and eosin for histology. Receptor autoradiography was performed as described (Matthews et al., 1994) with 100 pmol/L ICYP at 25° C. for 150 min. in the presence of 1 μmol/L (−)-propranolol, […] ICI 118,551 (β2-selective antagonist), or 100 nmol/L CGP 20712A (β1-selective antagonist) to distinguish nonspecific, β1, and β2-bindings. The images were quantified with a computerized image analysis system (MCID, Imaging Research) and normalized with ^125I standards.
(§3) Four days after injection of 1 mg/kg β1-AS-ODN (n=6) or saline (n=6), rats were sacrificed and tissues were removed and frozen in dry ice. Coronal sections of brain, horizontal sections of heart and sagittal sections of kidney (20 μm) were cut on a cryostat (Microm) at −20° C. and mounted on microscope slides. Every seventh slide was stained with haematoxylin and eosin for histology. Tissue sections were preincubated in Krebs buffer (NaCl 118.4 mM, KCl 4.7 mM, MgSO4 1.2 mM, CaCl2 1.27 mM, NaH2PO4 10.0 mM, pH 7.1) containing 0.1 mM guanosine triphosphate (GTP), 0.1 mM ascorbic acid and 10 μM phenylmethylsulfonylfluoride (PMSF) for 30 min at 25° C. Sections were then incubated in Krebs buffer containing 0.1 mM ascorbic acid and 10 μM PMSF with 100 pM I-CYP at 25° C. for 150 min, in the presence of 1 μM (−)propranolol, 100 nM IC1118,551 (β2-selective antagonist) or 100 nM CGP20712A (β1-selective antagonist) to distinguish non-specific, β1- and β2-bindings. Labeled sections were rinsed in the same buffer, followed by two 15-min washes at 37° C. in the buffer and rinsed in distilled water at 25° C. (Matthews et al., 1994). Dried sections were then exposed to X-ray films (Kodak Biomax-MR). The images were quantitated with a computerized image analysis system (MCID, Imaging Research) and normalized using ^125I-standards.

β1-AR = assay: as above; format: in vivo, rat (SHR)
Experimental: as §1, §2, §3

[1] = test system: spontaneously hypertensive rats; assay: Left ventricular hypertrophy after 2-month treatment; format: in vivo, rat (SHR); settings: end of 2-month treatment; vs controls
Experimental: Adult spontaneously hypertensive rats (300-350 g) were treated with β1-AS-ODNs for more than 2 months. The blood pressure was reduced by 20-30 mmHg persistently throughout the treatment period (FIG. 11). Control animals receiving saline or INV-ODNs had no change in blood pressure. At the end of a 2-month treatment, the hearts were dissected and weighed.

β2-AR = assay: β-AR density in myocardium after ischemia-reperfusion (binding assay); parameters: species or system Sprague-Dawley rats; settings: rat, in vivo
Experimental: Membrane protein was prepared from left ventricles as previously described (Baker and Pitha, 1982). For saturation studies, 100 μg membrane protein was incubated in triplicate with ^125I-(−)iodocyanopindolol (I-CYP, NEN Life Science, 6.25-100 pM) in a total volume of 250 μl containing 50 mM Tris-HCl (pH 7.4), 5 mM MgCl2 at 36° C. for 60 min. The nonspecific and β2-adrenoceptor binding were determined in the presence of 1 μM (±)-alprenolol and […] (RBI), respectively. Then the reaction mixture was passed through Whatman GF/B glass filter using Brandel harvester and the radioactivity was counted for one min.

[2] = 4 days after i.v. administration

## 5′-CCGCGCCCATGCCGA-3′ (phosphorothioate backbone, further chemistry not given here) [β1-AS-ODN, 15-mer antisense ODN targeted to the AUG start codon of rat β1-AR mRNA]
β2-ARs; 4 days after 0.5 mg/kg
  distribution and concentration of β2-subtype in kidney: remained unchanged
β2-ARs; [2]
  β2-ARs in any tissues: not affected
β1-AR; 4 days after 0.5 mg/kg, from 23.5±2.1
  overall density of β1-subtype in kidney: 15.4 ± 3.3 fmol/mg
β1-AR; 4 days after i.v. 1 mg/kg, from 26.4±3.1
  β1-AR density in renal cortex: 17.4 ± 3.3 fmol/mg
β1-AR; 4 days after i.v. 1 mg/kg, from 30.2±2.1
  β1-AR density in cardiac ventricles: 20.6 ± 2.5 fmol/mg
β1-AR; [2]
  distribution of β-ARs in forebrain and brain stem regions: no detectable changes
[1]
  left ventricular hypertrophy (LV/BW): significantly reduced
β2-AR
  β2-AR density in ischemic-reperfused myocardium: no change
